Source: PubChem BioAssay AID1918993 (Molecular Pharmacology Branch, DTP, NCI, 2023)
Values joined by “and” are separate entries in the source; they are usually repeats but may differ in a detail not shown here. Identical values can stand only once. Each block holds one compound with its values, some of them ahead of it.

Test system: 233499-124-R-J3-PDC complex spheroid growth
Assay: Anticancer human tumor 233499-124-R-J3-PDC patient-derived colon adenocarcinoma cell line growth inhibition [AhR]
Settings: for viability, T/C: stronger effect = lower value
Outline: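 Spheroids combined tumor cells with HUVEC endothelial cells and human MSCs as stroma. AhR antagonists were paired with standard or investigational drugs, each dosed in half-log steps down from near clinical Cmax, or from 10 microM where Cmax was unknown.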

[1] = curve of first compound, second compound 0.1 µM
[2] = curve of first compound, second compound 0.316 µM
[3] = curve of first compound, second compound 1 µM
[4] = curve of first compound, second compound 3.16 µM
[5] = curve of first compound, second compound 10 µM
[6] = second compound 0.1 µM, first compound 0.0316 µM
[7] = second compound 0.1 µM, first compound 0.1 µM
[8] = second compound 0.1 µM, first compound 0.316 µM
[9] = second compound 0.1 µM, first compound 1 µM
[10] = second compound 0.1 µM, first compound 3.16 µM
[11] = second compound 0.1 µM, first compound 10 µM
[12] = second compound 0.316 µM, first compound 0.0316 µM
[13] = second compound 0.316 µM, first compound 0.1 µM
[14] = second compound 0.316 µM, first compound 0.316 µM
[15] = second compound 0.316 µM, first compound 1 µM
[16] = second compound 0.316 µM, first compound 3.16 µM
[17] = second compound 0.316 µM, first compound 10 µM
[18] = second compound 1 µM, first compound 0.0316 µM
[19] = second compound 1 µM, first compound 0.1 µM
[20] = second compound 1 µM, first compound 0.316 µM
[21] = second compound 1 µM, first compound 1 µM
[22] = second compound 1 µM, first compound 3.16 µM
[23] = second compound 1 µM, first compound 10 µM
[24] = second compound 3.16 µM, first compound 0.0316 µM
[25] = second compound 3.16 µM, first compound 0.1 µM
[26] = second compound 3.16 µM, first compound 0.316 µM
[27] = second compound 3.16 µM, first compound 1 µM
[28] = second compound 3.16 µM, first compound 3.16 µM
[29] = second compound 3.16 µM, first compound 10 µM
[30] = second compound 10 µM, first compound 0.0316 µM
[31] = second compound 10 µM, first compound 0.1 µM
[32] = second compound 10 µM, first compound 0.316 µM
[33] = second compound 10 µM, first compound 1 µM
[34] = second compound 10 µM, first compound 3.16 µM
[35] = second compound 10 µM, first compound 10 µM
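Further: spheroids exposed to agents for seven days before reading.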

IC50 [1]: 0.0154 µM
IC50 [2]: 0.0133 µM
IC50 [3]: 0.0132 µM
IC50 [4]: 0.0129 µM
IC50 [5]: < 0.000949 µM
Structure (SMILES): CC(C)CC(NC(=O)C(Cc1ccccc1)NC(=O)c1cnccn1)B(O)O (configuration not stated) + Cc1cncc(-c2nc(NCCc3c[nH]c4ccccc34)c3ncn(C(C)C)c3n2)c1
viability, T/C (second compound 0.1 µM, first compound 0.000949 µM): 98.3%
viability, T/C (second compound 0.1 µM, first compound 0.003 µM): 95.1%
viability, T/C (second compound 0.1 µM, first compound 0.00949 µM): 86.4%
viability, T/C (second compound 0.1 µM, first compound 0.03 µM): 0.15%
viability, T/C (second compound 0.1 µM, first compound 0.0949 µM): 0.05%
viability, T/C (second compound 0.1 µM, first compound 0.3 µM): 0.13%
viability, T/C (second compound 0.316 µM, first compound 0.000949 µM): 92%
viability, T/C (second compound 0.316 µM, first compound 0.003 µM): 86.9%
viability, T/C (second compound 0.316 µM, first compound 0.00949 µM): 70.9%
viability, T/C (second compound 0.316 µM, first compound 0.03 µM): 0.12%
viability, T/C (second compound 0.316 µM, first compound 0.0949 µM): 0.04%
viability, T/C (second compound 0.316 µM, first compound 0.3 µM): 0.13%
viability, T/C (second compound 1 µM, first compound 0.000949 µM): 92.1%
viability, T/C (second compound 1 µM, first compound 0.003 µM): 89%
viability, T/C (second compound 1 µM, first compound 0.00949 µM): 69.7%
viability, T/C (second compound 1 µM, first compound 0.03 µM): 0.12%
viability, T/C (second compound 1 µM, first compound 0.0949 µM): 0.05%
viability, T/C (second compound 1 µM, first compound 0.3 µM): 0.13%
viability, T/C (second compound 3.16 µM, first compound 0.000949 µM): 86.2%
viability, T/C (second compound 3.16 µM, first compound 0.003 µM): 82.1%
viability, T/C (second compound 3.16 µM, first compound 0.00949 µM): 68.3%
viability, T/C (second compound 3.16 µM, first compound 0.03 µM): 0.11%
viability, T/C (second compound 3.16 µM, first compound 0.0949 µM): 0.04%
viability, T/C (second compound 3.16 µM, first compound 0.3 µM): 0.9%
viability, T/C (second compound 10 µM, first compound 0.000949 µM): 8.49%
viability, T/C (second compound 10 µM, first compound 0.003 µM): 5.28%
viability, T/C (second compound 10 µM, first compound 0.00949 µM): 4.74%
viability, T/C (second compound 10 µM, first compound 0.03 µM): 0.17%
viability, T/C (second compound 10 µM, first compound 0.0949 µM): 0.15%
viability, T/C (second compound 10 µM, first compound 0.3 µM): 0.21%

IC50 [1]: 5.08 µM
IC50 [2]: 5.64 µM
IC50 [3]: 5.44 µM
IC50 [4]: 5.35 µM
IC50 [5]: 4.81 µM
Structure (SMILES): Nc1ccccc1NC(=O)c1ccc(CNC(=O)OCc2cccnc2)cc1 + Cc1ccccc1N=Nc1ccc(NC(=O)c2ccnn2C)c(C)c1
viability, T/C [6]: 116%
viability, T/C [7]: 93.3%
viability, T/C [8]: 106%
viability, T/C [9]: 129%
viability, T/C [10]: 80%
viability, T/C [11]: 7.02%
viability, T/C [12]: 116%
viability, T/C [13]: 103%
viability, T/C [14]: 119%
viability, T/C [15]: 113%
viability, T/C [16]: 93%
viability, T/C [17]: 7.54%
viability, T/C [18]: 116%
viability, T/C [19]: 107%
viability, T/C [20]: 117%
viability, T/C [21]: 130%
viability, T/C [22]: 86.4%
viability, T/C [23]: 9.07%
viability, T/C [24]: 112%
viability, T/C [25]: 106%
viability, T/C [26]: 118%
viability, T/C [27]: 113%
viability, T/C [28]: 86.8%
viability, T/C [29]: 6.35%
viability, T/C [30]: 93.4%
viability, T/C [31]: 108%
viability, T/C [32]: 105%
viability, T/C [33]: 109%
viability, T/C [34]: 74.4%
viability, T/C [35]: 7.59%

IC50 (curve of compound): > 10 µM
Structure (SMILES): COc1cc(C2c3cc4c(cc3C(OC3OC5COC(C)OC5C(O)C3O)C3COC(=O)C23)OCO4)cc(OC)c1O (configuration not stated)
viability, T/C (compound 0.0316 µM): 101% and 87.7% and 99.6%
viability, T/C (compound 0.1 µM): 92.9% and 95.8% and 106%
viability, T/C (compound 0.316 µM): 98.6% and 95.4% and 95.7%
viability, T/C (compound 1 µM): 109% and 93.1% and 94.7%
viability, T/C (compound 3.16 µM): 91.3% and 92.4% and 110%
viability, T/C (compound 10 µM): 93.3% and 78.6% and 85.6%

IC50 [1]: 5.44 µM
IC50 [2]: 2.91 µM
IC50 [3]: 5.15 µM
IC50 [4]: 3.07 µM
IC50 [5]: 3.52 µM
Structure (SMILES): O=C(C=Cc1cccc(S(=O)(=O)Nc2ccccc2)c1)NO + CC(CO)NC(=O)c1cc(-c2ccc(Cl)cc2)nn(-c2cnn(C)c2)c1=O
viability, T/C [6]: 98%
viability, T/C [7]: 108%
viability, T/C [8]: 111%
viability, T/C [9]: 115%
viability, T/C [10]: 89%
viability, T/C [11]: 6.36%
viability, T/C [12]: 99.5%
viability, T/C [13]: 93%
viability, T/C [14]: 98.2%
viability, T/C [15]: 96.6%
viability, T/C [16]: 46.3%
viability, T/C [17]: 4.58%
viability, T/C [18]: 97.6%
viability, T/C [19]: 94.3%
viability, T/C [20]: 110%
viability, T/C [21]: 112%
viability, T/C [22]: 84.1%
viability, T/C [23]: 3.72%
viability, T/C [24]: 94.4%
viability, T/C [25]: 87.6%
viability, T/C [26]: 117%
viability, T/C [27]: 108%
viability, T/C [28]: 48.7%
viability, T/C [29]: 2.7%
viability, T/C [30]: 93.9%
viability, T/C [31]: 73.9%
viability, T/C [32]: 90.9%
viability, T/C [33]: 119%
viability, T/C [34]: 54.9%
viability, T/C [35]: 3.22%
